Entries after “also recorded” stand apart in the source; their conditions may differ. Where two headings read alike, the source gives them in different places.
Experiments:
[1] = system: Nrf2; details: cited from earlier work
[2] = system: 6-OHDA challenged mice; test: 6-OHDA murine model of Parkinson's disease (pole test, cylinder rearing test); format: in vivo; details: oral or intraperitoneal, 14 days
Procedure: C57BL/6 mice were unilaterally injected intracerebroventricullarly with 6-hydroxydopamine (6-OHDA) or saline (control mice) and subjected to chronic intraperitoneal treatment with cannabigerol quinone acid (1) (oral […] in sesame oil, and intraperitoneal 10 mg/Kg in Tween80/Saline ( 1/16)) or vehicle (14 days), starting 16 h after the 6-OHDA injection. SHAM group corresponds to mice subjected to the surgical manipulation without injection of 6-OHDA. Motor coordination was evaluated by rotarod performance and motor activity was evaluated using a computer-aided actimeter. A: pole test results after oral treatment, B: cylinder rearing test results after oral treatment, C: pole test results after intraperitoneal treatment, D: cylinder rearing test results after intraperitoneal treatment.
Motor coordination was evaluated by rotarod performance and motor activity was evaluated using a computer-aided actimeter. A: pole test results after oral treatment, B: cylinder rearing test results after oral treatment, C: pole test results after intraperitoneal treatment, D: cylinder rearing test results after intraperitoneal treatment.
C57BL/6 mice pretreated intracerebroventricularly were anesthetized with an intraperitoneal injection of 200 mg/Kg of 2,2,2-tribromoethanol (Sigma-Aldrich) and placed in a stereotaxic frame with a mouse adapter (David Kopf Instruments, Tujunga, Calif., USA). […]
The pole test was used to detect bradykinesia and motor and cylinder rearing test to evaluate sensory-motor deficits in PD mice. For Pole test mice were placed head-upward on the top of a vertical rough-surfaced pole (diameter 8 mm; height 55 cm) and the time until animals descended to the floor was recorded with a maximum duration of 90 s. […] For Cylinder Rearing Test (CRT) the initial forepaw (left, right, or both) preference after placing the mouse in a methacrylate transparent cylinder of 15.5 cm in diameter and 12.7 cm in height was measured. […]

[3] = molecular target: T1, PPARγ (Homo sapiens, UniProt P37231); test: PolarScreen PPAR Competitor Assay (PPARγ binding, fluorescence polarization)
T1 sequence (P37231 238-505 limits assumed): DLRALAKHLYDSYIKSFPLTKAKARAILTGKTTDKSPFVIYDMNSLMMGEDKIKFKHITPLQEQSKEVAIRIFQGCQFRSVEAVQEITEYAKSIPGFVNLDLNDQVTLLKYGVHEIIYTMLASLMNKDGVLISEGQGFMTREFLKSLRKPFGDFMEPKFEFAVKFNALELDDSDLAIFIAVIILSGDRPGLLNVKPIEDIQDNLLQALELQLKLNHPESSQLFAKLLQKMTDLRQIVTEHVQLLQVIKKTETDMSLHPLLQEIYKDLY
Procedure: PPARγ binding activity was determined by using PolarScreen™ PPAR Competitor Assay kit (Life Technologies), according to the manufacturer's specifications. The PolarScreen™ PPAR Competitor Assay is a binding assay for determining IC50 values of compounds that bind to PPARγ.
Concentration of the compound of formula I and salts of formula II resulting in a half maximal shifts in polarization value determines the IC50.

[4] = system: striatum of 3NP-intoxicated mice; test: Histological analysis of striatum in 3NP model (Nissl staining, Iba-1 immunostaining); format: in vivo; details: oral and intraperitoneal
Text: Loss of neurons in the striatum (Nissl staining) and Iba1 (microglia marker) were detected by immunostaining in the coronal sections of striatum of mice treated with vehicle, 3NP+ vehicle, 3NP+ compound I (oral and intraperitoneal). Quantification of Nissl staining (A) and Iba1 (B) positive cells in the mouse striatum. Total average number of neurons and microglia is shown.
Quantification of Nissl staining (A) and Iba1 (B) positive cells in the mouse striatum. Total average number of neurons and microglia is shown.
Brains from 3NP model were fixed in 4% paraformaldehyde and 5-μm-thick sections for Nissl staining and immunohistochemical analysis of Iba-1, a marker of microglial cells. For immunohistochemistry sections were incubated overnight at 4° C. with monoclonal anti-mouse Iba-1 antibody (Millipore, Mass., USA) used at 1/50 dilution. After incubation with the corresponding primary antibody, sections were washed in 0.1 M PBS and incubated O/N at 4° C. with goat anti-mouse (Millipore, Mass., USA) secondary antibody. […] Negative control sections were obtained using the same protocol with omission of the primary antibody. All sections for each immunohistochemical procedure were processed at the same time and under the same conditions. […]

[5] = system: TNFα; test: Real-time quantitative PCR of striatum, 3NP model, TNFα; details: 3NP mice vs 3NP+Vehicle; I 10 mg/kg oral and i.p.; IIe 30 mg/kg oral, 10 mg/Kg i.p.
Procedure: (§1) Expression levels were calculated using the 2^−ΔΔCt method. Values are expressed as means±SEM for 3 animals per group.
(§2) Total RNA was isolated from striata (3NP model) using RNeasy Lipid Tissue Mini Kit (Qiagen, GmbH). The total amount of RNA extracted was quantitated by spectrometry at 260 nm and its purity from the ratio between the absorbance values at 260 and 280 nm. Genomic DNA was removed to eliminate DNA contamination. Single-stranded complementary DNA was synthesized from up to 1 μg of total RNA (pool from at least 3 animals per group) using iScript™ cDNA Synthesis Kit (Bio-Rad, Hercules, Calif., USA). The reaction mixture was kept frozen at −20° C. until enzymatic amplification. The iQ™ SYBR Green Supermix (Bio-Rad) was used to quantify mRNA levels for TNF-α and IL-6. Real-time PCR was performed using a CFX96 Real-Time PCR Detection System (Bio-Rad). The GAPDH housekeeping gene was used to standardize the mRNA expression levels in every sample. Expression levels were calculated using the 2^−ΔΔCt method.

[6] = system: IL-6; test: Real-time quantitative PCR of striatum, 3NP model, IL-6; details: 3NP mice vs 3NP+Vehicle; I 10 mg/kg oral and i.p.; IIe 30 mg/kg oral, 10 mg/Kg i.p.
Procedure: as §1, §2

[7] = system: 3NP-intoxicated mice; test: 3NP murine model of Huntington's disease, behavioral score; format: in vivo; details: oral and intraperitoneal; I 10 mg/Kg both routes; sodium salt 30 mg/Kg oral, 10 mg/Kg i.p.
Procedure: Mice were subjected to behavioral tests for determining their neurological status after the treatment with oral cannabigerol quinone acid (I) (10 mg/Kg dissolved in sesame oil) and after intraperitoneal delivery (10 mg/Kg dissolved in ethanol/cremophor/saline). Hind limb clasping, Locomotor activity, and kyphosis were rated from 0 to 2 based on severity: a score of 0 typically indicates normal function and 2 seriously affected.
Mice were subjected to behavioral tests for determining their neurological status after the treatment with oral sodium salt of the cannabigerol quinone acid (30 mg/Kg dissolved saline) and after intraperitoneal delivery (10 mg/Kg dissolved in saline). Hind limb clasping, Locomotor activity, and kyphosis were rated from 0 to 2 based on severity: a score of 0 typically indicates normal function and 2 seriously affected. […]
Lesions of the striatum were induced with 3-NP in adult (16-week-old; 30 g) male C57BL/6 mice (Harlan Ibérica, Barcelona, Spain). […] We evaluated the general locomotor activity, the hindlimb clasping and dystonia, and the truncal dystonia. […]

CCCCCC1=CC(=O)C(C/C=C(\C)CCC=C(C)C)=C(O)C1=O [VCE-003, cannabigerol hydroxy-quinone]
Nrf2 activation (electrophilic activity) [1]: electrophilic (Nrf2 activation)
Nrf2 activation (electrophilic activity) ([1]; listed as CBG-Q): activates the transcription factor Nrf2

CCCCCC1=C(C(=O)O)C(=O)C(C/C=C(\C)CCC=C(C)C)=C(O)C1=O [I, cannabigerol quinone acid]
bradykinesia (pole test) [2]: attenuated
clinical symptoms in 6-OH-DA challenged mice [2]: alleviates clinical symptoms
motor deficit (cylinder rearing test) [2]: attenuated
Remaining fluorescence polarization (%) ([3]; compound concentration 0.01 ∝M): 97.8%
Remaining fluorescence polarization (%) ([3]; compound concentration 0.05 ∝M): 97.3%
Remaining fluorescence polarization (%) ([3]; compound concentration 0.1 ∝M): 87.3%
Remaining fluorescence polarization (%) ([3]; compound concentration 0.5 ∝M): 78.2%
Remaining fluorescence polarization (%) ([3]; compound concentration 1 ∝M): 53.3%
Remaining fluorescence polarization (%) ([3]; compound concentration 5 ∝M): 20.7%
Remaining fluorescence polarization (%) ([3]; compound concentration 10 ∝M): 16.5%
Remaining fluorescence polarization (%) ([3]; compound concentration 25 ∝M): 24.4%
Remaining fluorescence polarization (%) ([3]; compound concentration 50 ∝M): 34.4%
reactive microgliosis (Iba-1+ cells) [4]: prevented the induction of reactive microgliosis
striatal neurons (Nissl staining) against 3NP toxicity [4]: preservation of striatal neurons
gene expression of TNFα in striatum [5]: down regulated; also recorded: attenuated the up-regulation
gene expression of IL-6 in striatum [6]: down regulated; also recorded: attenuated the up-regulation
clinical symptoms induced by 3-NP intoxication (behavioral score: hind limb clasping, locomotor activity, kyphosis) [7]: clearly alleviates the clinical symptoms

Reference: patent publication US20220041538A1, “CA[…] ACID AND SALTS THEREOF” (EMERALD HEALTH PHARMACEUTICALS INC, priority 2018, published 2022)
